From patent US20140335135A1, “PHARMACEUTICAL COMPOSITION” (FERRING BV, priority 2011, published 2014)

Key:
[1] = Particle size distribution by optical microscopy (diameter of the coextensive circle); format: physicochemical
Procedure: Two different methods were used to incorporate triptorelin into the hexyl substituted polylactide polymer. The first was a “separate milling and mixing” method in which the triptorelin was micronized using an SPEX 6700 Freezer/mill at −196° C. in liquid nitrogen (milling for 5 min), the resulting micronized powder being mixed with the hexyl substituted polylactide polymer by kneading in plastic bags until a homogeneous formulation was obtained (as verified by optical microscopy).
In the second method, lyophilised triptorelin (10% by weight of polymer or 5% by weight polymer or 2.5% by weight polymer) was incorporated into the polymer by a combined direct “cryo-milling-mixing” technique. The triptorelin was micronized together with the polymer in a cryo-mill (SPEX 6700 Freezer/mill) at −196 C for five minutes in liquid nitrogen. The particle size distribution in the formulations was analysed using an Optishot-2 microscope (Nikon, Tokyo, Japan) and ImageJ software.
The kneading provided a homogenous suspension (FIG. 1a) although the average diameter increased to 9.0 μm because some larger particles of more than 30 μm were formed due to agglomeration.

[2] = Solubility of triptorelin in hexyl substituted polylactide polymer; format: physicochemical
Text: Triptorelin is not soluble in the hexyl substituted polylactide polymer (which is a viscous liquid) because of its relatively high hydrophilicity. The lyophilized triptorelin was therefore micronized, by cryomilling or spray-drying, to ensure small particle size for incorporation into the polymer. Preferably the triptorelin (or salt/derivative thereof) is micronized/mixed with the polylactide at a temperature below the glass transition temperature of the polylactide, more preferably at temperature of around −196° C., so as to avoid melting and resulting increased viscosity of the polylactide.

For `CC(C)C[C@H](NC(=O)[C@@H](Cc1c[nH]c2ccccc12)NC(=O)[C@H](Cc1ccc(O)cc1)NC(=O)[C@H](CO)NC(=O)[C@H](Cc1c[nH]c2ccccc12)NC(=O)[C@H](Cc1c[nH]cn1)NC(=O)[C@@H]1CCC(=O)N1)C(=O)N[C@@H](CCCNC(=N)N)C(=O)N1CCC[C@H]1C(=O)NCC(N)=O` [Triptorelin, L-Pyroglutamyl-L-histidyl-Ltryptophyl-L-seryl-L-tyrosyl-D-tryptophyl-L-eucy-L-arginy-L-prolyl-glycinamide], the “average diameter for the coextensive circle” value [1] was 5.6 μm and the “solubility in the hexyl substituted polylactide polymer” value [2] was “not soluble”.
